In brackets after ≈: the same amount, converted by molar mass.
Tests used:
[1] = MTD, oral gavage b.i.d. 14 days, CD-1 mice; assay type: in vivo, mouse; details: for detrimental effects: 14 days
Method: The highest dose (120 mg/kg b.i.d.) caused about 10% body weight loss in female mice after 7-10 days of treatment but no further deterioration was observed through the rest of the treatment period (FIG. 16A).

MYC-CAP-CR cells [2] = experiment: Short-term cell proliferation assay, MYC-CAP-CR; assay type: cell-based, murine; details: androgen-containing media
Text: (§1) MYC-CaP-CR cells (Ellis L. et al., 2012. Prostate 72(6):587-591) were selected for castration resistance from genetically engineered MYC-CaP cells that express MYC from an AR-responsive promoter (Watson P A, et al., 2005. Cancer Res 65(24):11565-11571). Castration resistance in these cells is associated with the overexpression of full-length AR rather than an AR variant, such as AR-V7 in 22rv1 (Olson B M, et al., 2017. Cancer immunology research 5(12):1074-1085).

[3] = Solubility of 15u in aqueous solution and vehicles
MV4-11 cells = experiment: cells; details: Homo sapiens, MV4-11, read-out: Inhibition Potency MV4-11-Luc Assay
CSNK1E = CSNK1E (Homo sapiens, UniProt P49674); experiment: Kd Elect binding assay (DiscoverX)
[4] = Oral PK by formulation, male CD-1 mice 30 mg/kg; assay type: in vivo, mouse; details: for Elimination rate k: male CD-1
CSNK1D = CSNK1D (Homo sapiens, UniProt P48730); experiment: Kd Elect binding assay (DiscoverX)
MYC-CaP-CR tumors = MYC-CaP-CR tumors subcutaneous in intact FVB male mice; assay type: in vivo, mouse
Text: as §1

in vivo = details: female, CD-1, mouse, in vivo, po, 30 mg/kg
MYC-CAP-CR cells [5] = experiment: Long-term clonogenic assay, MYC-CaP-CR; assay type: cell-based, murine; details: 1 μM Senexin B, 1 μM 15u, 5 μM enzalutamide
Text: as §1

MDA-MB-468 xenografts = experiment: MDA-MB-468 TNBC xenografts in NSG female mice; details: 250 ppm medicated diet plus 5 then 8 mg/kg daily gavage, 66 days
[6] = system: luciferase-expressing MV4-11 cells; experiment: MV4-11 leukemia in female NSG mice (BLI); assay type: in vivo, mouse; details: for inhibition of leukemia growth: 23 days, BLI
PRP4 = biological target: T1, PRP4 (Homo sapiens, UniProt Q13523); experiment: KINOMEscan scanMAX; assay type: binding; details: PRP4, 2000 nM
T1 construct: DNA label (qPCR read-out); purchased DiscoverX (KINOMEscan)
Text: (§2) Nat. Biotechnol. 23, 329-336 (2005).
(§3) Percent Control (% Ctrl).
(§4) % Ctrl=100×(TS−CPOS)/(CNEG−CPOS) (eqn 1)

PKNB(M. tuberculosis) = biological target: T2, PKNB(M. tuberculosis) (Mycobacterium tuberculosis, UniProt P9WI81); experiment: KINOMEscan scanMAX; assay type: binding; details: 2000 nM
T2 construct: purchased DiscoveRx (KINOMEscan scanMAX panel)
Text: as §2, §3, §4

CDC2L5 = biological target: T3, CDC2L5 (Homo sapiens, UniProt Q14004); experiment: KINOMEscan scanMAX; assay type: binding; details: CDC2L5, 2000 nM
T3 construct: purchased DiscoverX (KINOMEscan scanMAX service)
Text: as §2, §3, §4

FLT3(ITD, F691L) = experiment: KINOMEscan scanMAX; assay type: binding; details: 2000 nM
Text: as §2, §3, §4

PFCDPK1(P. falciparum) = biological target: T4, PFCDPK1(P. falciparum) (Plasmodium falciparum, UniProt P62344); experiment: KINOMEscan scanMAX; assay type: binding; details: 2000 nM
T4 construct: DNA label (qPCR read-out); purchased DiscoveRx (KINOMEscan scanMAX)
Text: as §2, §3, §4

PFPK5(P. falciparum) = biological target: T5, PFPK5(P. falciparum) (Plasmodium falciparum, UniProt P61075); experiment: KINOMEscan scanMAX; assay type: binding; details: 2000 nM
T5 construct: purchased KINOMEscan (DiscoveRx) scanMAX panel
Text: as §2, §3, §4

FLT3(ITD, D835V) = experiment: KINOMEscan scanMAX; assay type: binding; details: 2000 nM
Text: as §2, §3, §4

FLT3(ITD) = experiment: KINOMEscan scanMAX; assay type: binding; details: 2000 nM
Text: as §2, §3, §4

[7] = Oral PK of a mixture of 15w and 15u, 30 mg/kg, female CD1 mice; details: oral 30 mg/kg each
[8] = system: alkaline phosphatase (ALPase); details: concentration that enhances ALPase activity to 200% of control, ST2 cells; cited from earlier work
[9] = system: 4T1 murine TNBC lung metastasis; experiment: 4T1 breast cancer metastasis survival after primary tumor removal; assay type: in vivo, mouse; details: 15u 25 mg/kg oral b.i.d. after removal of the primary 4T1 tumor
Method: 4T1 is a murine triple-negative breast cancer (TNBC) cell line, which is highly metastatic to the lungs. […] Parental and CDK8-knockdown 4T1 cells (n=10) were injected orthotopically in the mammary fat pad and the primary tumors were removed 17 days later. Following surgery, all the mice eventually died with lung metastases. […] However, the loss of CDK8 was associated with a strong increase in the survival of mice (FIG. 10C). […]

[10] = MTD, medicated diet 4 or 5 weeks, CD-1 mice; assay type: in vivo, mouse; details: female CD-1 mice, 1000 ppm medicated diet, first week
Method: In another long-term MTD in vivo assay, groups of male and female CD-1 mice were fed regular diet (control) or 15u-medicated diet (500 ppm or 1000 ppm) for 4 or 5 weeks (FIG. 16B). The daily doses of 500 ppm and 1000 ppm groups were estimated to be about 50-100 mg/kg and 100-200 mg/kg, respectively, based on daily diet consumption.

T1 sequence (Q13523 whole entry): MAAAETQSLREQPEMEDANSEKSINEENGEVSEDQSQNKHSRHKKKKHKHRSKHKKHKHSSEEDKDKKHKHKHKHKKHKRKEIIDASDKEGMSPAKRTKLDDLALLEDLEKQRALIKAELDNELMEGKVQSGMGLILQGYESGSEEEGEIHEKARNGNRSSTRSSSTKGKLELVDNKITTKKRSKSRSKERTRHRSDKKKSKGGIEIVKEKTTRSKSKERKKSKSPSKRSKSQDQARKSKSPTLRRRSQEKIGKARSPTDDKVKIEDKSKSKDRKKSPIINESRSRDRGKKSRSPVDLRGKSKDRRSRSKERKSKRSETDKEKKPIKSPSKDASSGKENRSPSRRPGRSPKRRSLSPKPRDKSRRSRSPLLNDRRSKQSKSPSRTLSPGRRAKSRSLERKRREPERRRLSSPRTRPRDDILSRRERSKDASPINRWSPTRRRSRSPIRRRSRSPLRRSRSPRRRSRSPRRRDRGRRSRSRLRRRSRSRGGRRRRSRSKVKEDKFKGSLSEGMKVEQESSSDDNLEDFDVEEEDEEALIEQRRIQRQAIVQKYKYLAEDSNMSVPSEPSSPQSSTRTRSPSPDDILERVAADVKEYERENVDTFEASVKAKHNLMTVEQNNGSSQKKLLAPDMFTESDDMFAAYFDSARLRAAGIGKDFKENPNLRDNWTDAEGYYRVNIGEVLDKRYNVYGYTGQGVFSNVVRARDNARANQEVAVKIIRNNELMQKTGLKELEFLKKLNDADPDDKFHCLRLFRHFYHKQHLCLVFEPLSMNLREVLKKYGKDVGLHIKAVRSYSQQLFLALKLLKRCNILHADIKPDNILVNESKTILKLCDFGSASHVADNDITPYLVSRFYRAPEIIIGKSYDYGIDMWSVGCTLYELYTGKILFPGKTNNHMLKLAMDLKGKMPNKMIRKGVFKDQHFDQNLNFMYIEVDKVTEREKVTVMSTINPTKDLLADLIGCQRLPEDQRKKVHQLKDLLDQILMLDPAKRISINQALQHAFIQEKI
Chain of CSNK1E (P49674 whole entry): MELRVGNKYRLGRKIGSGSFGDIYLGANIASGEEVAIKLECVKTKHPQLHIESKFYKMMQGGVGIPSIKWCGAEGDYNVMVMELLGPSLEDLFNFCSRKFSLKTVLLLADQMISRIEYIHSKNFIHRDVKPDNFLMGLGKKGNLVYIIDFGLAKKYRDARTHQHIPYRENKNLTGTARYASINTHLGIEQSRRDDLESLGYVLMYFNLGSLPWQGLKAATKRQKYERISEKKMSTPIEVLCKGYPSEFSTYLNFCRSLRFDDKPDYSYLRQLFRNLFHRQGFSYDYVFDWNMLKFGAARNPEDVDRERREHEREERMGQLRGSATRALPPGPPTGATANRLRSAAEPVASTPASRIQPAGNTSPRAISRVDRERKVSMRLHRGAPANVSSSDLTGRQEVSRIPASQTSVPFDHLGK
T5 sequence (P61075 whole entry): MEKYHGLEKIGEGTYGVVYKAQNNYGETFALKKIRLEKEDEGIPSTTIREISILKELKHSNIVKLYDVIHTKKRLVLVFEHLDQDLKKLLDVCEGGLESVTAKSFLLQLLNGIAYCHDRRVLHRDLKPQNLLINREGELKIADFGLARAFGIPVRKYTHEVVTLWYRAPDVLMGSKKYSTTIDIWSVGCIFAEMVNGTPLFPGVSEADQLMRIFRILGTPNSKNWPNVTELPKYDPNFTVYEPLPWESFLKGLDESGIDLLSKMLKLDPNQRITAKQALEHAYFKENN
Chain of CSNK1D (P48730 whole entry): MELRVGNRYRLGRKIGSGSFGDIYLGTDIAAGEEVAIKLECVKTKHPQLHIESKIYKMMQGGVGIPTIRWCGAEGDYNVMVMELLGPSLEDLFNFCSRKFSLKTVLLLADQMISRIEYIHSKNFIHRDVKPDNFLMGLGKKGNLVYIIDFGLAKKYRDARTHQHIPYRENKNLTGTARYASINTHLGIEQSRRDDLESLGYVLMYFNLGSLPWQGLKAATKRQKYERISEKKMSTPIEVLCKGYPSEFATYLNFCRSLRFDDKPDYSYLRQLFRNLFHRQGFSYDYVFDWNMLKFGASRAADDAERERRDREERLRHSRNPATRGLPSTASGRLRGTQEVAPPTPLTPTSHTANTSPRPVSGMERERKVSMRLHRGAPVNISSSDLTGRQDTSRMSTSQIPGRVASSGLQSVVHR
T4 sequence (P62344 whole entry): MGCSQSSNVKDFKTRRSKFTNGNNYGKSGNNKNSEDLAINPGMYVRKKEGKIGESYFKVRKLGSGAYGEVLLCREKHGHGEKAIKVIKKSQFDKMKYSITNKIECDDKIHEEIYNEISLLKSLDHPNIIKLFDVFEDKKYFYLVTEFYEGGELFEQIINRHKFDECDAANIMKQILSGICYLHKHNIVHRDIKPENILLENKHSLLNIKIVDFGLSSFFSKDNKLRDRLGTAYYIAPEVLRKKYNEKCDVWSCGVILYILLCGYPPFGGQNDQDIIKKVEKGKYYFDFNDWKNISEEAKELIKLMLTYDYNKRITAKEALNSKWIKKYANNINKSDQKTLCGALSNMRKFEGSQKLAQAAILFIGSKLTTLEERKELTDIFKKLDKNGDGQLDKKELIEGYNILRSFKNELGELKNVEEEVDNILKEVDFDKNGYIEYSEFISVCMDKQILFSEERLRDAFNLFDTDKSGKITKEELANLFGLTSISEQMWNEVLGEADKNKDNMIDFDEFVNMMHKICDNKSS
T3 sequence (Q14004 whole entry): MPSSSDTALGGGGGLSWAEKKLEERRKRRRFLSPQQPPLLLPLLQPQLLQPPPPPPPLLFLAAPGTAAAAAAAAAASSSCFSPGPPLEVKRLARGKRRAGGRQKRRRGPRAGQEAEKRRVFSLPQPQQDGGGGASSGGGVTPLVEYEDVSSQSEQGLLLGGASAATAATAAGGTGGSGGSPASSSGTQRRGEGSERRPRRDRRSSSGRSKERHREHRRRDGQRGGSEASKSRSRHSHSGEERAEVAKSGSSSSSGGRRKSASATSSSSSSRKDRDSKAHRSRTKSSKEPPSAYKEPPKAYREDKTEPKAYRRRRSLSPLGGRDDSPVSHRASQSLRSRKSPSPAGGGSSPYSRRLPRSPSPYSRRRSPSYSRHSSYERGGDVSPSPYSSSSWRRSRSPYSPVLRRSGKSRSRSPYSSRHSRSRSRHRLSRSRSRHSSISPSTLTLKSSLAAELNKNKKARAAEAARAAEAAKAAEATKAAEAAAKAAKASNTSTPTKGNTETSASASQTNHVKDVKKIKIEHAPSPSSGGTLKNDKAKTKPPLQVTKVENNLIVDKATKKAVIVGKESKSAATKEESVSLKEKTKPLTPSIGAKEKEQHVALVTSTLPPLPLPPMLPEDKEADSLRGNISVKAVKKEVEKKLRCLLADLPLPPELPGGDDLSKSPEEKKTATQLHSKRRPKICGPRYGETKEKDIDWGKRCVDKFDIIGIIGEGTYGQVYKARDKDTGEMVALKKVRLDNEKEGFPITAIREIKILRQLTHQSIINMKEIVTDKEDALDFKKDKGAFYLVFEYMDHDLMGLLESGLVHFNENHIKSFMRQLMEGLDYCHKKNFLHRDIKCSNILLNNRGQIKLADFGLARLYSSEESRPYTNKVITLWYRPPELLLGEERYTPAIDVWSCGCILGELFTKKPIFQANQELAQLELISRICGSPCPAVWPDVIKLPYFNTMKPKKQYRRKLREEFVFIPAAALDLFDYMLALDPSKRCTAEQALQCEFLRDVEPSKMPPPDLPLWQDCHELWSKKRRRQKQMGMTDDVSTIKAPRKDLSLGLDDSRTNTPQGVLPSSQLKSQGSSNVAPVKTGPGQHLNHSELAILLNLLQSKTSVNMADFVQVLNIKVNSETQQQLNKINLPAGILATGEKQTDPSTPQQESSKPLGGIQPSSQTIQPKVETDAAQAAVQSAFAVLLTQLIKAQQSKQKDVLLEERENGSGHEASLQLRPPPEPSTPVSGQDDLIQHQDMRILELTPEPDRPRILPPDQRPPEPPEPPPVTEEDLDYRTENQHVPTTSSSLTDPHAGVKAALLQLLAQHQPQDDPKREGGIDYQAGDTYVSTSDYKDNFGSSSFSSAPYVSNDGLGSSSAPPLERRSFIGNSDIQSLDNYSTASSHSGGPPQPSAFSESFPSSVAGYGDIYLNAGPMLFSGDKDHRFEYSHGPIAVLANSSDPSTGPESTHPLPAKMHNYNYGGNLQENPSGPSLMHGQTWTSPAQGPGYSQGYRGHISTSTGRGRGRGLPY
T2 sequence (P9WI81 whole entry): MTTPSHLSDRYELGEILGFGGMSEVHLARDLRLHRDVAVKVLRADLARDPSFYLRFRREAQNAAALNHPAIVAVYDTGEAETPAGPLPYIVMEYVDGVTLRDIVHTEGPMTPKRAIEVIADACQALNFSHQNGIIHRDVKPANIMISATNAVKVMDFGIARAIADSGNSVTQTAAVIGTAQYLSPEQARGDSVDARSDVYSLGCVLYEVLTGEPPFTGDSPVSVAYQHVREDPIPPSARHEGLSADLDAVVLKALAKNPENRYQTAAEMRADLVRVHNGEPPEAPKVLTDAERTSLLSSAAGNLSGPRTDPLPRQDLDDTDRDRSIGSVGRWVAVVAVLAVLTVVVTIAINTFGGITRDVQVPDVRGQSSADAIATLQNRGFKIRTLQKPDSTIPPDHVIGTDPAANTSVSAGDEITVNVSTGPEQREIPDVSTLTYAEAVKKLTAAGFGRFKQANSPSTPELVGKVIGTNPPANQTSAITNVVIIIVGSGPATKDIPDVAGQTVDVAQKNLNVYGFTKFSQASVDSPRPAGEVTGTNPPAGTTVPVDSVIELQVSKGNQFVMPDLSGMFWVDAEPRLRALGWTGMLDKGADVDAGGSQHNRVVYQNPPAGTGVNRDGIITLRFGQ

CN(C)C(=O)c1ccc(N2CCCN(c3ccnc4sc(C(N)=O)c(N)c34)CC2)cc1 [Compound 15u, 3-amino-4-(4-(4-(dimethylcarbamoyl)phenyl)-1,4-diazepan-1-yl)thieno[2,3-b]pyridine-2-carboxamide]
body weight loss ([1]; female CD-1 mice, 120 mg/kg b.i.d., after 7-10 days of treatment): about 10%
detrimental effects ([1]; female CD-1 mice, doses up to 60 mg/kg b.i.d.): No detrimental effects were observed
detrimental effects ([1]; male CD-1 mice, 60 and 120 mg/kg b.i.d.): No detrimental effects were observed
MYC-CAP-CR cell growth (MYC-CAP-CR cells [2]): little effect
amount of the compound in the liquid phase ([3]; 5% DMSO, 20% HPBCD): 0.2 mg/mL
solubility ([3]; Liquid formulation 1, pH 2.1, aqueous with cosolvent or surfactant or cyclodextrin): ~5000 µg/mL (≈ 11.4 mM)
solubility ([3]; Liquid formulation 2, organic solvent or mixture): ≤ 20000 µg/mL
solubility ([3]; aqueous solution, pH 7, water): < 10 µg/mL
IC50 (MV4-11 cells): 30 nM
Kd (CSNK1E): 280 nM
Elimination rate k ([4]; LF-V#2, oral 30 mg/kg): 0.22 h⁻¹
Elimination rate k ([4]; Sus-V#1, oral 30 mg/kg): 0.37 h⁻¹
Elimination rate k ([4]; Sus-V#2, oral 30 mg/kg): 0.38 h⁻¹
increase of AUC, Liquid formulation 2 vs both suspension vehicles ([4]; oral 30 mg/kg, male CD-1 mice): 2-3 fold
increase of t1/2, Liquid formulation 2 vs both suspension vehicles ([4]; oral 30 mg/kg, male CD-1 mice): ~1.7 fold
Kd (CSNK1D): 860 nM
MYC-CaP-CR tumor volume and weight (MYC-CaP-CR tumors): modest effect
AUC(0-t) (in vivo): 6600 ng·h/mL
MYC-CaP-CR colony formation (MYC-CAP-CR cells [5]): decreased MYC-CaP-CR colony formation
MDA-MB-468 tumor volume (MDA-MB-468 xenografts): significant reduction in tumor volume
MDA-MB-468 tumor weights at the end of the study (MDA-MB-468 xenografts): significantly lower
mouse body weights (MDA-MB-468 xenografts): no detrimental effects
inhibition of leukemia growth ([6]; 30 mg/kg twice daily by gavage): 94%
inhibition of leukemia growth ([6]; medicated chow 1 g/kg): 99.7%
survival post treatment ([6]; oral gavage): superior survival rates
% Ctrl (PRP4): 100 % Ctrl
% Ctrl (PKNB(M. tuberculosis)): 100 % Ctrl
% Ctrl (CDC2L5): 71 % Ctrl
% Ctrl (FLT3(ITD, F691L)): 95 % Ctrl
% Ctrl (PFCDPK1(P. falciparum)): 94 % Ctrl
% Ctrl (PFPK5(P. falciparum)): 68 % Ctrl
% Ctrl (FLT3(ITD, D835V)): 41 % Ctrl
% Ctrl (FLT3(ITD)): 82 % Ctrl
average serum concentration at the latest timepoint (8 hrs) as % of Cmax [7]: 64.4 % of Cmax
ALP activity Assay EC200 [8]: 31.9 nM
mouse survival of the metastatic disease [9]: significantly increased mouse survival
weight loss [10]: 5-10%
